In brackets after ≈: the same amount, converted by molar mass. Entries after “also recorded” stand apart in the source; their conditions may differ.
Legend:
[1] = tested on: Gram-negative strains; experiment: MIC, micro-dilution method, Gram-negative strains as a group; format: cell-based; conditions: highest (maximal) concentration tested 100 μM, CLSI M7-A7, cation-adjusted MHB
Text: S. aureus CH-91 was kindly provided by S. Takeuchi from Fukui Prefectural University, Japan (Takeuchi et al. [1999]). The strain has been deposited in the DSMZ collection under the number DSM 26258. Bacillus licheniformis NCTC 7224, Bacillus subtilis ATCC 6633, Lactococcus lactis subsp. lactis LOCK 0869, Micrococcus luteus strains DSMZ 20030 and CBM (clinical isolate), Sarcina lutea ATCC 9341, S. aureus strains ATCC 25923, M-122 (Polakowska et al. [2012]), Newman and RN4220, S. epidermidis ATCC 35347, Staphylococcus intermedius ATCC 29666, Staphylococcus pseudintermedius LMG 22219 (Devriese et al. [2005]), Staphylococcus saprophyticus ATCC 49453, Staphylococcus xylosus strains isolated from the skin of healthy chickens, Streptococcus mutans ATCC 25175, Streptococcus pneumoniae ATCC 49619, Escherichia coli K12 ATCC 10798, Klebsiella pneumoniae, Serratia marcescens, and Sphingomonas sp. AMC 3962 (Dziga et al. [2012]) were obtained from the collections of The Faculty of Biochemistry, Biophysics and Biotechnology, Jagiellonian University, Krakow, Poland. […]
The bactericidal activity of BacCH91 was determined using the micro-dilution method in compliance with Clinical and Laboratory Standards Institute guidelines M7-A7 (CLSI [2006]). […] After overnight incubation at 37 °C, the optical density (OD) at 600 nm was measured. […]

[2] = format: physicochemical; conditions: 30 μM, radial diffusion assay, S. lutea
Description: To test the pH stability of BacCH91, a water solution of the bacteriocin (final concentration, 30 μM) was evaporated in a vacuum centrifuge and re-dissolved in (a) 100 mM sodium citrate pH 3.0, 4.0, 5.0, and 6.0; […] The solutions were incubated for 3 h at RT, and the residual activity of the bacteriocin was determined using the radial diffusion assay. The temperature stability of BacCH91 (30 μM final concentration) was determined in 50 mM Tris–HCl pH 7.4, 0.15 M NaCl and 50 mM bis-Tris pH 6.4, 0.15 M NaCl. The solutions were incubated for 1, 6, and 24 h at 37, 60, 80, and 99 °C. […] All of the above experiments were performed in triplicate. The final results are presented as means ± SD.

[3] = tested on: various S. aureus strains; format: cell-based
Text: (§1) S. aureus CH-91 was kindly provided by S. Takeuchi from Fukui Prefectural University, Japan (Takeuchi et al. [1999]). The strain has been deposited in the DSMZ collection under the number DSM 26258. Bacillus licheniformis NCTC 7224, Bacillus subtilis ATCC 6633, Lactococcus lactis subsp. lactis LOCK 0869, Micrococcus luteus strains DSMZ 20030 and CBM (clinical isolate), Sarcina lutea ATCC 9341, S. aureus strains ATCC 25923, M-122 (Polakowska et al. [2012]), Newman and RN4220, S. epidermidis ATCC 35347, Staphylococcus intermedius ATCC 29666, Staphylococcus pseudintermedius LMG 22219 (Devriese et al. [2005]), Staphylococcus saprophyticus ATCC 49453, Staphylococcus xylosus strains isolated from the skin of healthy chickens, Streptococcus mutans ATCC 25175, Streptococcus pneumoniae ATCC 49619, Escherichia coli K12 ATCC 10798, Klebsiella pneumoniae, Serratia marcescens, and Sphingomonas sp. AMC 3962 (Dziga et al. [2012]) were obtained from the collections of The Faculty of Biochemistry, Biophysics and Biotechnology, Jagiellonian University, Krakow, Poland. A list of strains used for assessment of the general occurrence of the bacteriocin gene is provided in the Electronic supplementary materials (ESM; Table S1). Gram-positive and Gram-negative bacteria were maintained at 37 °C in tryptic soy broth (TSB) and Luria-Bertani broth (both obtained from Sigma), respectively.
(§2) The bactericidal activity of BacCH91 was determined using the micro-dilution method in compliance with Clinical and Laboratory Standards Institute guidelines M7-A7 (CLSI [2006]). Briefly, the bacteria were either cultivated in cation-adjusted MHB to the early exponential phase or grown overnight on agar-solidified MHB supplemented with 2.5 % LHB in the case of Streptococcus spp. and L. lactis. Subsequently, the bacteria were diluted to 1 × 10^6 CFU/ml either in MHB or in MHB supplemented with 5 % LHB, in the case of the latter bacteria. Fifty-microliter portions of bacterial suspension were mixed with an equal volume of MHB containing serial twofold dilutions of bacteriocin. After overnight incubation at 37 °C, the optical density (OD) at 600 nm was measured. The MIC was defined as the minimum bacteriocin concentration for which the increase in OD was not observed compared to uninoculated broth.

[4] = tested on: Staphylococcus aureus ATCC 25923; format: cell-based
Text: as §1, §2

[5] = tested on: Serratia marcescens; format: cell-based
Text: as §1, §2

[6] = tested on: Staphylococcus intermedius ATCC 29663; format: cell-based
[7] = tested on: staphopain C (StpC); conditions: 30 μM, 100 mM bis-Tris pH 6.4 or Tris–HCl pH 7.5 with 5 mM cysteine hydrochloride and 5 mM EDTA, 1:20 by weight, 1 h at 37 °C; radial diffusion assay and HPLC
Description: (§3) For pH, temperature, and protease resistance assays, the residual activity of BacCH91 was determined using the radial diffusion assay (Lemos Miguel et al. [2008]). In brief, plates were prepared containing 200× diluted overnight culture of S. lutea ATCC 9341 in TSB agar (1 %, w/v). Wells (2.4 mm diameter) were cut in the agar and filled with 10 μl of the BacCH91 preparation for testing. Following overnight incubation at 37 °C, the residual activity was measured as the diameter of inhibition zones.
(§4) We evaluated the susceptibility of BacCH91 to proteolysis by aureolysin; staphopains A, B, and C; V8 peptidase (Biocentrum); bovine alpha-chymotrypsin and TPCK-treated trypsin (Sigma); human elastase and cathepsin G (Biocentrum); pepsin from porcine gastric mucosa (Sigma); and proteinase K (A&A Biotechnology). […] The residual activity was determined with the radial diffusion assay using S. lutea as an indicator strain, and the bacteriocin molecule integrity was assessed using HPLC. […]

[8] = tested on: staphylococcal extracellular peptidases (aureolysin; staphopains A, B, and C; V8 peptidase); conditions: 30 μM, pH 6.4 or pH 7.5/7.8, enzyme/bacteriocin 1:20 by weight, 1 h at 37 °C; radial diffusion assay and HPLC; triplicate
Description: as §3, §4

[9] = biological target: T1, proteinase K (Parengyodontium album, UniProt P06873); experiment: Susceptibility to proteolysis, proteinase K; format: in vitro ADME; conditions: 30 μM, enzyme/bacteriocin 1:20 by weight, 1 h at 37 °C; radial diffusion assay and HPLC
T1 construct: purchased A&A Biotechnology
T1 sequence (P06873 106-384): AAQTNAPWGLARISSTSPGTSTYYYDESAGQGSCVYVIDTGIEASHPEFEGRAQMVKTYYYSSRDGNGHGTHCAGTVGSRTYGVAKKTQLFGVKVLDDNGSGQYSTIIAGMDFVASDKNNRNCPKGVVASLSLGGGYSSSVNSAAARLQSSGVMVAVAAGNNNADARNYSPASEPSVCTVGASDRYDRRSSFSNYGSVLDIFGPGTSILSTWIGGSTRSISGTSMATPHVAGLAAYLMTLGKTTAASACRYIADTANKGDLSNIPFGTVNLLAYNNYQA
Description: All of the above experiments were performed in triplicate. The final results are presented as means ± SD.

[10] = tested on: Pseudomonas aeruginosa ATCC 27853; format: cell-based

SMILES: C/C=C(\NC(=O)[C@H](CCCCN)NC(=O)CNC(=O)[C@@H]1CS[C@@H](C)[C@@H](NC(=O)[C@@H]2CSC[C@@H](NC(=O)/C(=C/C)NC(=O)[C@@H](N)[C@@H](C)CC)C(=O)N[C@@H](Cc3ccccc3)C(=O)N[C@@H]([C@@H](C)CC)C(=O)NCC(=O)N2)C(=O)N2CCC[C@H]2C(=O)NCC(=O)N1)C(=O)NCC(=O)N[C@@H]1CSC[C@@H]2NC(=O)[C@H](Cc3ccccc3)NC(=O)[C@@H](CS/C=C\NC2=O)NC(=O)[C@H](CC(N)=O)NC(=O)[C@H](Cc2ccccc2)NC1=O [BacCH91]
- susceptibility of Gram-negative strains to BacCH91 [1]: ineffective; also recorded: None of the Gram-negative species assayed were susceptible
- residual activity after 1 h at temperatures up to 80 °C ([2]; 50 mM Tris–HCl pH 7.4, 0.15 M NaCl and 50 mM bis-Tris pH 6.4, 0.15 M NaCl, 37, 60, 80 °C, 1 h, triplicate): maintained its activity
- residual activity after several hours at temperatures higher than 60 °C ([2]; pH 6.4 and pH 7.4 buffers with 0.15 M NaCl, 6 and 24 h time points, triplicate): complete inactivation
- activity retained during incubation for 1 h at 80 °C ([2]; pH 6.4 and pH 7.4 buffers with 0.15 M NaCl, 80 °C, 1 h): ~100%
- residual activity after short incubation at 99 °C ([2]; pH 6.4 and pH 7.4 buffers with 0.15 M NaCl, 99 °C, triplicate): complete inactivation
- MIC [3]: 6.0 µM (≈ 12.5 µg/mL)
- MIC [4]: 6.0 µM (≈ 12.5 µg/mL)
- MIC [5]: >100 µM
- MIC [6]: 1.6 µM (≈ 3.32 µg/mL)
- effect of StpC on BacCH91 [7]: not affected
- effect of staphylococcal peptidases on BacCH91 [8]: not affected
- effect of proteinase K on BacCH91 [9]: unaffected
- MIC [10]: >100 µM

From PMC3724985, “Isolation, biochemical characterization, and cloning of a bacteriocin from the poultry-associated Staphylococcus aureus strain CH-91” (Applied Microbiology and Biotechnology, 2012)
